Laboratory results: patent US8143382B2, “Pyrazole disazo dye and ink containing the dye” (Mitsubishi Chemical Corporation, priority 2007, dated 2012)

How the values were obtained:
[1] = Solubility of the dye in n-decane (saturated solution, 25° C., ordinary pressure); format: physicochemical; conditions: for Solubility compared with the comparative compound: from Table 1; for [Molar extinction coefficient at absorption maximum wavelength] × [molar concentration of saturated solution]: saturated solution at 25° C.; for Solubility (decane): saturated solution, 25° C., ordinary pressure, 0.1-μm filter
Procedure: (§1) The dye was added to n-decane, and this mixture was subjected to an ultrasonic treatment at 30° C. and ordinary pressure. When the dye completely dissolved, an additional amount of the dye was added so that the dye partly remained undissolved. The mixture thus treated was allowed to stand at room temperature (25° C.) for 12 hours and then subjected to centrifugal filtration with a 0.1-μm filter to obtain a saturated solution of the dye. This solution was diluted to an appropriate concentration and examined for absorption spectrum.
(§2) From values of absorption maximum wavelength in the wavelength range of 350-800 nm, gram extinction coefficient, and molar extinction coefficient which had been determined beforehand at an appropriate concentration and from the dilution ratio and the absorption spectrum of the diluted solution, the solubility (% by weight) and the product of the molar extinction coefficient at the absorption maximum wavelength and the molar concentration of the saturated solution were calculated.

[2] = Absorption spectrum and colour of the n-decane solution of the dye; format: physicochemical; conditions: for Gram extinction coefficient: decane, at the absorption maximum wavelength; for Color of solution / Absorption maximum wavelength: n-decane solution; for Absorption maximum wavelength: wavelength range 350-800 nm
Procedure: as §1, §2

SMILES | Solubility compared with the comparative compound [1] | [Molar extinction coefficient at absorption maximum wavelength] × [molar concentration of saturated solution] [1] | Solubility (decane) [1] | Gram extinction coefficient [2] | Color of solution [2] | Absorption maximum wavelength [2]
CCCCc1nn(C(C)(C)C)c(O)c1N=Nc1ccc(N=Nc2ccccc2)cc1 [1-1] | higher solubility than the comparative compound | 1900 cm⁻¹ | 4.2 wt % | 62000 cm^2g^−1 | yellow | 417 nm
CCCCc1ccc(N=Nc2ccc(N=Nc3c(CCCC)nn(C(C)(C)C)c3O)cc2)cc1 [1-2] | higher solubility than the comparative compound | 13000 cm⁻¹ | 30 wt % | 61000 cm^2g^−1 | yellow | 421 nm
CCc1nn(C(C)(C)C)c(O)c1N=Nc1ccc(N=Nc2ccccc2)cc1 [1-3] | higher solubility than the comparative compound | 1400 cm⁻¹ | 3.1 wt % | 69000 cm^2g^−1 | yellow | 415 nm
Cc1nn(-c2ccccc2)c(O)c1N=Nc1ccc(N=Nc2ccccc2)cc1 [compound 1, reference compound] |  | 10 cm⁻¹ | 0.014 wt % | 97000 cm^2g^−1 | almost no | 416 nm
